For one compound, Kd results are on record in paper PMC4506568, “Targeting a Dynamic Protein–Protein Interaction: Fragment Screening against the Malaria Myosin A Motor Complex” (Chemmedchem, 2014).

In the experiment the target is T1, PfMTIPΔ60 (Plasmodium falciparum myosin A tail domain interacting protein, residues 61-204) (Plasmodium falciparum, UniProt Q8I4W8).
T1 construct: gene MTIP; residues 61-204 (N- and C-terminal domains, disordered N-terminal extension removed), N-terminal His tag kept, recombinant as previously described; 15N-labelled for NMR; free of myoA tail
In words: 1H, […]-HSQC NMR titration. Type of experiment: binding.

The structures appear in SMILES notation.

T1 sequence (Q8I4W8 entry or part of it, stated change not applied): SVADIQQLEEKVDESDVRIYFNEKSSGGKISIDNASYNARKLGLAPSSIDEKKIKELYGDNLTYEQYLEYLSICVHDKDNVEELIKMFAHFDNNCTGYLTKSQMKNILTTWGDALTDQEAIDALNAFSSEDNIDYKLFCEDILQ

By Kd is commonly meant the constant that tells how readily two partners part at equilibrium. A low value points to tighter binding. In turn, `CN(C)Cc1ccc(CSCCN)o1` [compound 8, fragment 8] gave a Kd of 22.5 ± 2.7 mM.
